# In patent US20090111801A1, “SUBSTITUTED PYRAZINONE DERIVATIVES FOR USE AS A MEDICINE” (Janssen Pharmaceutica N.V., priority 2006, published 2009):
# What was measured:
# hα2C receptor = target: T1, hα2C receptor (Homo sapiens, UniProt P18825); assay: Radioligand binding experiment for α2C-adrenoceptor ([3H]raulwolscine, CHO cell membranes); details: [3H]raulwolscine binding; for IC50: read-out: h-α2C pIC50 (converted)
# T1 construct: expressed in transfected cells; host or cells: CHO cells, stably transfected; membrane preparation
# T1 sequence (P18825 1-462): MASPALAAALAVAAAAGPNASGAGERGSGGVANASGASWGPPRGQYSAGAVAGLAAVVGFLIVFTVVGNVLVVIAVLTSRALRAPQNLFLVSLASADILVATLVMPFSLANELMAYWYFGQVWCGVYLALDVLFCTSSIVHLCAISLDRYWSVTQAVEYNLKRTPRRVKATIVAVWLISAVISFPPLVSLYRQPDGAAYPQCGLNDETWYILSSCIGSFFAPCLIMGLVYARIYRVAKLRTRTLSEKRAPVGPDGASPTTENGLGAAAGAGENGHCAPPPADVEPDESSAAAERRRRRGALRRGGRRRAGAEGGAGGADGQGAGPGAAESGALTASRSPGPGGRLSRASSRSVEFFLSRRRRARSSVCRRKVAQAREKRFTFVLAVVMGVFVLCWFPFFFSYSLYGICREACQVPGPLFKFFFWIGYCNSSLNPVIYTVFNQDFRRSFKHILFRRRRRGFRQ
# 5HT-Transporter = target: T2, 5HT-Transporter (Homo sapiens, UniProt P31645); assay: Binding experiment for the 5HT-transporter ([3H]paroxetine, human platelet membranes); details: [3H]paroxetine 0.5 nM; for IC50: read-out: h-5HTT pIC50 (converted)
# T2 construct: Human platelet membranes (Oceanix Biosciences Corporation, Hanover, Md., USA) were thawed; tissue Oceanix Biosciences Corporation, Hanover, Md., USA; host or cells: human platelet membranes
# T2 sequence (P31645 whole entry): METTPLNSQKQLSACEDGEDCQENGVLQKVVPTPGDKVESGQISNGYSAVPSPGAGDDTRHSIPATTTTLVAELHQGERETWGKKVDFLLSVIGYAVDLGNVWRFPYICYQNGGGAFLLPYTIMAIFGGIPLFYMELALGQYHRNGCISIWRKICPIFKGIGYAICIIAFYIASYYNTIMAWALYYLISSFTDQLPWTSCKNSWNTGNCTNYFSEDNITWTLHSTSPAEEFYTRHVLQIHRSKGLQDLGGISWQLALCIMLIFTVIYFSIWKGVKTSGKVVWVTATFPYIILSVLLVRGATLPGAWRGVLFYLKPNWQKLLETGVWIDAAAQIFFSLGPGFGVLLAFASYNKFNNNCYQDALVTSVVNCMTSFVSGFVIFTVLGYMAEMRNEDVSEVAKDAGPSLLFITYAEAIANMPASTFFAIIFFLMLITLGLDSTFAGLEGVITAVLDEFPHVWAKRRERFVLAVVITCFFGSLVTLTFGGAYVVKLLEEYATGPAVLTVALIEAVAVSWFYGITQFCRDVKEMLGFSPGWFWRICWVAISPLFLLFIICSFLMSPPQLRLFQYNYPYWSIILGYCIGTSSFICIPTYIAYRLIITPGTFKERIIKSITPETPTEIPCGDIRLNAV
# Outline: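 Filter-bound radioactivity from human platelet membranes incubated with [3H]paroxetine and test compound (buffer Tris-HCl 50 mM, 120 mM NaCl, 5 mM KCl) was counted.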
# hα2A receptor = target: T3, hα2A receptor (Homo sapiens, UniProt P08913); assay: Radioligand binding experiment for α2A-adrenoceptor ([3H]raulwolscine, CHO cell membranes); details: [3H]raulwolscine binding; for IC50: read-out: h-α2A pIC50 (converted)
# T3 construct: expressed in transfected cells; host or cells: CHO cells, stably transfected; membrane preparation
# T3 sequence (P08913 1-465): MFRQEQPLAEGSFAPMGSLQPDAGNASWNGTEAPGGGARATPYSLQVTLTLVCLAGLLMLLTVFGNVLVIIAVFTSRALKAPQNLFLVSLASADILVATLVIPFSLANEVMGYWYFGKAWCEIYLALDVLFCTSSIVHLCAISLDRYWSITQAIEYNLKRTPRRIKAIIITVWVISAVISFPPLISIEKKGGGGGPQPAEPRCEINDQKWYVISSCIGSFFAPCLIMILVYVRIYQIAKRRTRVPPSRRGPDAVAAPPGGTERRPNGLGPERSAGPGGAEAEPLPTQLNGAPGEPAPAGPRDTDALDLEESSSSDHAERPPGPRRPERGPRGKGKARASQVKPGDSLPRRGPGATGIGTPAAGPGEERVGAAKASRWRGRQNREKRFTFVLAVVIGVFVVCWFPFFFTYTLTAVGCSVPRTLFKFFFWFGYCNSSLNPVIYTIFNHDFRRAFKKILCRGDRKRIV
SMILES,IC50 (hα2C receptor),IC50 (5HT-Transporter),IC50 (hα2A receptor),h-α2C pIC50 (hα2C receptor),h-5HTT pIC50 (5HT-Transporter),h-α2A pIC50 (hα2A receptor)
C/C(=C\c1ccccc1)CN1CCC(Nc2nccn(CC(=O)NCCCN(C)C)c2=O)CC1 [1-107],1.58 nM,2000 nM,31.6 nM,,,
C/C(=C\c1ccccc1)CN1CCC(Nc2nccn(-c3cccc(CNCCN4CCCC4)c3)c2=O)CC1 [1-130],,,,8.8,6.7,8.2
C/C(=C\c1ccccc1)CN1CCC(Nc2nccn(Cc3ccc(CNS(=O)(=O)c4ccc(F)cc4)cc3)c2=O)CC1 [1-162],20 nM,316 nM,100 nM,,,
C/C(=C\c1ccccc1)CN1CCC(Nc2nccn(-c3ccc(NCc4ccccc4)cc3)c2=O)CC1 [1-50],3.16 nM,631 nM,100 nM,,,
CC(=O)NCCNC(=O)Cn1ccnc(NC2CCN(C/C(C)=C/c3ccccc3)CC2)c1=O [1-114],12.6 nM,3980 nM,200 nM,,,
C/C(=C\c1ccccc1)CN1CCC(Nc2nccn(CC(=O)NC(C)(C)Cc3ccccc3)c2=O)CC1 [1-62],3.16 nM,1000 nM,126 nM,,,
COCCN(C)C(=O)Cn1ccnc(NC2CCN(C/C(C)=C/c3ccccc3)CC2)c1=O [1-24],7.94 nM,3160 nM,126 nM,,,
CCN(CC)c1ccc(C(=O)Cn2ccnc(NC3CCN(C/C(C)=C/c4ccccc4)CC3)c2=O)cc1 [1-18],12.6 nM,1000 nM,39.8 nM,,,
CCOC(=O)N1CCC(NCc2ccc(-n3ccnc(NC4CCN(C/C(C)=C/c5ccccc5)CC4)c3=O)cc2)CC1 [1-128],,,,7.9,5.9,7.0
C/C(=C\c1ccccc1)CN1CCC(Nc2nccn(CCCNS(=O)(=O)c3ccccc3)c2=O)CC1 [1-158],6.31 nM,158 nM,100 nM,,,
C/C(=C\c1ccccc1)CN1CCC(Nc2nccn(CC(=O)N(CCN3CCOCC3)Cc3ccc(F)cc3)c2=O)CC1 [1-151],2 nM,1260 nM,126 nM,,,
COC(=O)CCNCc1cccc(-n2ccnc(NC3CCN(C/C(C)=C/c4ccccc4)CC3)c2=O)c1 [1-95],,,,8.9,5.9,7.6
C/C(=C\c1ccccc1)CN1CCC(Nc2nccn(CC(=O)N(CCN(C)C)Cc3ccc(F)cc3)c2=O)CC1 [1-113],3.98 nM,7940 nM,126 nM,,,
CNCCCn1ccnc(NC2CCN(C/C(C)=C/c3ccccc3)CC2)c1=O [1-8],3.16 nM,3980 nM,50.1 nM,,,
C/C(=C\c1ccccc1)CN1CCC(N(C)c2nccn(Cc3ccc(CN(C)C)cc3)c2=O)CC1 [15-2],3.16 nM,1000 nM,31.6 nM,,,
C/C(=C\c1ccccc1)CN1CCC(Nc2nccn(-c3cccc(NCCc4ccccc4)c3)c2=O)CC1 [1-58],6.31 nM,398 nM,25.1 nM,,,
C/C(=C\c1ccccc1)CN1CCC(Nc2nccn(CCCN(Cc3ccccc3)C(=O)Cc3ccccc3)c2=O)CC1 [1-89],12.6 nM,794 nM,200 nM,,,
C/C(=C\c1ccccc1)CN1CCC(Nc2nccn(CCCN(Cc3ccccc3)Cc3ccccc3)c2=O)CC1 [1-71],5.01 nM,398 nM,100 nM,,,
C/C(=C\c1ccccc1)CN1CCC(Nc2nccn(CCCN(C)C(=O)c3ccccc3)c2=O)CC1 [1-74],10 nM,3160 nM,251 nM,,,
C/C(=C\c1ccccc1)CN1CCC(Nc2nccn(-c3cccc(CNCCCN4CCCC4=O)c3)c2=O)CC1 [1-133],,,,8.7,5.6,7.5
C/C(=C\c1ccccc1)CN1CCC(Nc2nccn(CC(=O)N(CCCN3CCCC3=O)Cc3ccc(F)cc3)c2=O)CC1 [1-139],3.16 nM,2510 nM,200 nM,,,
COc1ccc(CNC(=O)Cn2ccnc(NC3CCN(C/C(C)=C/c4ccccc4)CC3)c2=O)cc1 [1-64],12.6 nM,1580 nM,251 nM,,,

# Results, then the compound that gave them:
IC50 (hα2C receptor),IC50 (5HT-Transporter),IC50 (hα2A receptor),h-α2C pIC50 (hα2C receptor),h-5HTT pIC50 (5HT-Transporter),h-α2A pIC50 (hα2A receptor),SMILES
501 nM,1580 nM,794 nM,,,,COc1ccc(Cn2c(-c3cccc(Br)c3)c(Cl)nc(NC3CCN(C/C(C)=C/c4ccccc4)CC3)c2=O)cc1 [17-2]
63.1 nM,> 10000 nM,398 nM,,,,C/C(=C\c1ccccc1)CN1CCN(c2nccn(CC(=O)C(C)(C)C)c2=O)CC1 [14-4]
39.8 nM,7940 nM,158 nM,,,,C/C(=C\c1ccccc1)CN1CCC(Nc2nccn(CC(=O)N3CCN(C(=O)C4CCCO4)CC3)c2=O)CC1 (stereo not drawn) [2-38]
6.31 nM,501 nM,63.1 nM,,,,C/C(=C\c1ccccc1)CN1CCC(Nc2nccn(-c3ccc(C(=O)N4CCC(C)CC4)cc3)c2=O)CC1 [2-11]
6.31 nM,50.1 nM,126 nM,,,,C/C(=C\c1ccccc1)CN1CCC(Nc2nccn(CC#CCN3C(=O)c4ccccc4C3=O)c2=O)CC1 [2-54]
158 nM,7940 nM,398 nM,,,,C/C(=C\c1ccccc1)CN1CCN(c2nccn(CC3CCCCC3)c2=O)CC1 [14-3]
200 nM,> 10000 nM,1000 nM,,,,COC(=O)Cn1ccnc(NC2CCN(C/C=C/c3ccccc3)CC2)c1=O [16-10]
25.1 nM,501 nM,100 nM,,,,C/C(=C\c1ccccc1)CN1CCC(Nc2nccn(Cc3cccc(F)c3)c2=O)CC1 [5-12]
63.1 nM,1260 nM,158 nM,,,,C/C(=C\c1ccccc1)CN1CCC(Nc2nccn(Cc3ccc(F)cc3)c2=O)CC1 [5-13]
12.6 nM,200 nM,501 nM,,,,O=C1c2ccccc2C(=O)N1CCCn1ccnc(NC2CCN(C/C=C/c3ccccc3)CC2)c1=O [16-8]
158 nM,631 nM,794 nM,,,,CCOC(=O)CCCCn1ccnc(NC2CCN(C/C=C/c3ccccc3)CC2)c1=O [16-11]
158 nM,> 10000 nM,1580 nM,,,,C/C(=C\c1ccccc1)CN1CCN(c2nccn(CC(=O)N(C)C)c2=O)CC1 [8-2]
6.31 nM,2000 nM,39.8 nM,,,,C/C(=C\c1ccccc1)CN1CCC(Nc2nccn(-c3ccc(C=O)cc3)c2=O)CC1 [5-6]
20 nM,7940 nM,316 nM,,,,C/C(=C\c1ccccc1)CN1CCC(Nc2nccn(CCN3CCOCC3)c2=O)CC1 [2-39]
39.8 nM,631 nM,126 nM,,,,C/C(=C\c1ccccc1)CN1CCC(Nc2nccn(Cc3cccc(Cl)c3)c2=O)CC1 [5-18]
100 nM,1260 nM,251 nM,,,,C/C(=C\c1ccccc1)CN1CCN(c2nccn(CCOc3ccccc3)c2=O)CC1 [10-2]
316 nM,1260 nM,631 nM,,,,O=c1c(NC2CCN(C/C=C/c3ccccc3)CC2)nccn1CC1CCCCC1 [16-23]
25.1 nM,> 10000 nM,126 nM,,,,CC(=O)N1CCN(C(=O)Cn2ccnc(NC3CCN(C/C(C)=C/c4ccccc4)CC3)c2=O)CC1 [2-22]
31.6 nM,158 nM,126 nM,,,,C/C(=C\c1ccccc1)CN1CCC(Nc2nccn(CCOc3ccccc3)c2=O)CC1 [3-18]
39.8 nM,1260 nM,398 nM,,,,CC(C)(C)OC(=O)NCCCn1ccnc(NC2CCN(C/C=C/c3ccccc3)CC2)c1=O [16-4]
39.8 nM,3980 nM,79.4 nM,,,,C/C(=C\c1ccccc1)CN1CCN(c2nccn(Cc3ccc(Cl)s3)c2=O)CC1 [13-2]
20 nM,200 nM,63.1 nM,,,,C/C(=C\c1ccccc1)CN1CCC(Nc2nccn(CCCOc3ccccc3)c2=O)CC1 [3-19]
2 nM,794 nM,79.4 nM,,,,C/C(=C\c1ccccc1)CN1CCC(Nc2nccn(CC(=O)N3CCN(Cc4ccccc4)CC3)c2=O)CC1 [2-30]
1.58 nM,251 nM,31.6 nM,,,,C/C(=C\c1ccccc1)CN1CCC(Nc2nccn(-c3ccc(CN4CCCCC4)cc3)c2=O)CC1 [2-10]
31.6 nM,2510 nM,158 nM,,,,CCOC(=O)N1CCN(C(=O)Cn2ccnc(NC3CCN(C/C(C)=C/c4ccccc4)CC3)c2=O)CC1 [2-35]
